Series [1] can be described thus: Toxicity in ip dosed […] administered twice daily. The conditions noted are these: in vivo. Type of series: organism-based.
Series [2] is described as follows: AUC in ip dosed […] administered twice daily. Format: ADME, organism-based. Particulars: in vivo.
The nature of series [3]: Bioavailability in ip dosed […] administered twice daily. Type of series: ADME, organism-based. Particulars: in vivo.
The nature of series [4]: Cmax in ip dosed […] administered twice daily. Format: ADME, organism-based. On the set-up: route intraperitoneal. The conditions noted are these: in vivo.
Series [5] concerns the target Tyrosine-protein kinase Lyn (Homo sapiens, UniProt P07948). Description: […] of Lyn (unknown origin).
The nature of series [6]: Tmax in ip dosed […] administered twice daily. Format: ADME, organism-based. The conditions noted are these: in vivo.
A short description of series [7]: Drug uptake in human brain. Type of series: ADME, tissue-based.

Tyrosine-protein kinase Lyn, sequence (P07948 whole entry): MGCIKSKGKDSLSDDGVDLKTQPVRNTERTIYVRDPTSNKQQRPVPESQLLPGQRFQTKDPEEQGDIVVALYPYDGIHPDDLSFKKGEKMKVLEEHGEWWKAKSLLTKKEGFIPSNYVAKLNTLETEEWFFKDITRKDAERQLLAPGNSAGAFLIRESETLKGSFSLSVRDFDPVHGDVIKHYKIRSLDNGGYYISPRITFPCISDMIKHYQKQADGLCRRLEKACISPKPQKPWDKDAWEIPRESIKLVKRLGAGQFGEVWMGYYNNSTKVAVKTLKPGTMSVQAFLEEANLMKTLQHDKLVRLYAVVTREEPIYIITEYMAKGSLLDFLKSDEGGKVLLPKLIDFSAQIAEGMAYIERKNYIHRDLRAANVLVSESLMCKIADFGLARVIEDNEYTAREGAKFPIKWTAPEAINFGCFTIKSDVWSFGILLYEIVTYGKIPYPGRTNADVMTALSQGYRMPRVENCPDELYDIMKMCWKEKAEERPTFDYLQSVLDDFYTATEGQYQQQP

The term AUC denotes concentration integrated over time. By bioavailability is commonly meant dose-corrected exposure relative to a reference, in per cent. Read a high bioavailability as good availability. The Cmax is the peak of the concentration-time curve. The EC50 is the midpoint of the concentration-response curve. As a reminder, the Tmax is the time at which the peak concentration occurs. On to `Cc1cccc(Oc2cnc(=O)[nH]c2)c1` [TOLIMIDONE], for which the MTD in series [1] came to 100 mg/kg. The compound also displayed an AUC in series [2] of 4780 ng·h/mL. In series [3], the bioavailability is 53.9%. The compound further yielded a Cmax in series [4] of 6540 ng/mL. In series [5], the EC50 is 63 nM. Also, the time of peak concentration (Tmax) in series [6] is 15 min. The compound also displayed a Drug uptake in series [7] of 1.3%.

The record behind these values is ChEMBL document CHEMBL4627343, “High throughput in vivo phenotypic screening for drug repurposing: Discovery of MLR-1023 a novel insulin sensitizer and novel Lyn kinase activator with clinical proof of concept” (Bioorg Med Chem, 2020).
